Reference: US20250305931A1, “METHOD FOR ANALYZING A URINE SAMPLE, AND A REAGENT FOR ANALYZING A URINE SAMPLE” (SYSMEX CORPORATION, priority 2024, published 2025)

Legend:
[1] = tested on: purified yeast fungus (C. glabrata); assay: Staining of yeast-like fungi in spiked negative urine, flow cytometer UF-5000 SF channel, average fluorescence intensity of the yeast cluster; format: cell-based; conditions: for average value of the fluorescence intensity compared with 2-phenoxyethanol used alone: Example 2, compound mixed with 2-phenoxyethanol; for average value of the fluorescence intensity compared with when other compounds are used: concentrations of Table 2
Protocol: Each of the following substances was dissolved in purified water to prepare a buffer solution.
When the compound shown in the following table was not dissolved, the compound was used after filtration. […] Furthermore, a first reagent having the same composition as Diluting Liquid of EXAMPLE-1 of U.S. Patent Publication No. 2006/0073601 was prepared. The first reagent is represented by [2-phenoxyethanol(*)] in the following table. In the following table, the compound of the present embodiment is shown in bold.
UF-fluorocell SF for UF-5000 (Sysmex Corporation) was used. Such reagents include polymethine-based dyes and stain lipid bilayer membranes and porous protein aggregates of cells, and the like.
A purified yeast fungus (C. glabrata) was added to negative urine to a concentration of about 1800 cells/μL. In order to confirm the effect on red blood cells, human blood was added to negative urine so that the concentration of red blood cells was about 400 cells/μL. As the negative urine, a commercially available Normal Human Urine (Golden West Diagnostics, LLC) was filtered through a 0.22-μm membrane filter, and a urine specimen having a negative result in a sediment assay was used.
A measurement sample was prepared by mixing a first reagent and a second reagent with a urine sample, and measurement was performed using an SF channel of a flow cytometer UF-5000 (Sysmex Corporation), and a scattergram was prepared in which a forward scattered light intensity was taken on the vertical axis and a fluorescence intensity was taken on the horizontal axis. In measurement using the SF channel, red blood cells, crystals, a glass cylinder, a cylinder containing contents, and the like are measured. To calculate the average value of the fluorescence intensity of yeast fungi, an arbitrary region Y for each measurement was set, and the average value of the fluorescence intensity of a population of dots appearing in the region was calculated. Note that the value of the fluorescence intensity is a relative value when the minimum value of the horizontal axis in the scattergram is 0 and the maximum value is 255.
SF. Specifically, after mixing 362.5 μL of the first reagent, 125 μL of the urine specimen, and 12.5 μL of the second reagent, the measurement sample was prepared by stirring at about 39° C. for 9 seconds, and then flowed into the flow cell of the detection section. Information on scattered light and fluorescence emitted from particles in the measurement sample that received the laser beam was acquired by the detection unit. A scattergram was generated based on the obtained optical information.

yeast-like fungi = assay: Clinical urine specimens, staining of yeast-like fungi on the scattergram; format: cell-based; conditions: Example 4, chlorphenesin 3 g/L, or 1,2-octanediol 2 g/L with 2-phenoxyethanol 6 g/L, control UF-CELLPACK SF
Protocol: The following specimens were used as the specimen. • (1) Clinical specimen 1: a specimen in which yeast-like fungi and red blood cells are detected in a microscopy • (2) Clinical specimen 2 to 4: a specimen in which yeast-like fungi have been detected by microscopy • (3) Clinical specimen 5 to 10: a specimen in which red blood cells are detected in a microscopy
A urine sample was measured in the same manner as in Example 1, except that the first reagent was prepared by adding 3 g/L chlorphenesin or 6 g/L 2-phenoxyethanol and 2 g/L 1,2-octanediol to the buffer solution described in Example 1. In addition, a urine sample was measured in the same manner as in Example 1 using UF-CELLPACK SF (manufactured by Sysmex) as a first reagent as a control. UF-CELLPACK SF (manufactured by Sysmex) contained 6 g/L of 2-phenoxyethanol. In the following table, the compound of the present embodiment is shown in bold.

[2] = Example 1, 10 g/L in first reagent, final 7.3 g/L, filtered if not dissolved, relative scale 0-255

CCCCC(O)CO (stereo not drawn) [1,2-HEXANEDIOL, reference compound]
AVERAGE VALUE OF FLUORESCENT SIGNAL INTENSITY [1, 2]: 107.7

COC(=O)c1ccc(O)cc1 [METHYLPARABEN, reference compound]
AVERAGE VALUE OF FLUORESCENT SIGNAL INTENSITY ([1]; Example 1, 1.9 g/L in first reagent, final 1.4 g/L, relative scale 0-255): 220.5

CCCCCC(C)O (stereo not drawn) [2-HEPTANOL, 2-heptanol]
AVERAGE VALUE OF FLUORESCENT SIGNAL INTENSITY [1, 2]: 250.1
average value of the fluorescence intensity compared with 2-phenoxyethanol used alone [1]: significantly larger

OCCOCCOc1ccccc1 [PHENYL DIGLYCOL, reference compound]
AVERAGE VALUE OF FLUORESCENT SIGNAL INTENSITY [1, 2]: 165.0

OCCCOc1ccccc1 [3-PHENOXY-1-PROPANOL, 3-phenoxy-1-propanol]
AVERAGE VALUE OF FLUORESCENT SIGNAL INTENSITY ([1]; Example 1, 7 g/L in first reagent, final 5.1 g/L, relative scale 0-255): 253.6
average value of the fluorescence intensity compared with when other compounds are used ([1]; Example 1): significantly larger
average value of the fluorescence intensity compared with 2-phenoxyethanol used alone [1]: significantly larger

CCCCCCC(O)CO (stereo not drawn) [1,2-OCTANEDIOL, 1,2-octanediol]
AVERAGE VALUE OF FLUORESCENT SIGNAL INTENSITY ([1]; Example 1, 6 g/L in first reagent, final 4.4 g/L, relative scale 0-255): 253.4
average value of the fluorescence intensity compared with 2-phenoxyethanol used alone [1]: significantly larger
AVERAGE VALUE OF FLUORESCENT SIGNAL INTENSITY ([1]; Example 3, 3 g/L in first reagent, final 2.2 g/L): 222.1
AVERAGE VALUE OF FLUORESCENT SIGNAL INTENSITY ([1]; Example 3, 4 g/L in first reagent, final 2.9 g/L): 245.3
AVERAGE VALUE OF FLUORESCENT SIGNAL INTENSITY ([1]; Example 3, 5 g/L in first reagent, final 3.6 g/L): 251.0
AVERAGE VALUE OF FLUORESCENT SIGNAL INTENSITY ([1]; Example 3, 6 g/L in first reagent, final 4.4 g/L): 252.1
staining of yeast-like fungi (yeast-like fungi; clinical specimen 1 (yeast-like fungi and red blood cells)): more strongly stained
staining of yeast-like fungi (yeast-like fungi; clinical specimens 2 to 4 rich in yeast-like fungi): more strongly stained

OCCOc1ccccc1 [2-PHENOXYETHANOL, 2-phenoxyethanol, reference compound]
AVERAGE VALUE OF FLUORESCENT SIGNAL INTENSITY ([1]; Example 1, 7.5 g/L in first reagent, final 5.4 g/L, relative scale 0-255): 196.9

CCCCCCC(C)O (stereo not drawn) [2-OCTANOL, 2-octanol]
AVERAGE VALUE OF FLUORESCENT SIGNAL INTENSITY [1, 2]: 240.6

OCCCCC(O)CO (stereo not drawn) [1,2,6-HEXANETRIOL, reference compound]
AVERAGE VALUE OF FLUORESCENT SIGNAL INTENSITY [1, 2]: 80.5

CCCCCCCCC(C)O (stereo not drawn) [2-DECANOL, reference compound]
AVERAGE VALUE OF FLUORESCENT SIGNAL INTENSITY [1, 2]: 106.0

OCCCCCCCCO [1,8-OCTANEDIOL, reference compound]
AVERAGE VALUE OF FLUORESCENT SIGNAL INTENSITY [1, 2]: 120.5

CCCCCCCCCCC(O)CO (stereo not drawn) [1,2-DODECANEDIOL, reference compound]
AVERAGE VALUE OF FLUORESCENT SIGNAL INTENSITY ([1]; Example 1, 0.5 g/L in first reagent, final 0.4 g/L, relative scale 0-255): 107.6

CCCCCCCCC(O)CO (stereo not drawn) [1,2-DECANEDIOL, 1,2-decanediol]
AVERAGE VALUE OF FLUORESCENT SIGNAL INTENSITY ([1]; Example 1, 1 g/L in first reagent, final 0.7 g/L, relative scale 0-255): 252.7

COc1cccc(OCC(C)O)c1 (stereo not drawn) [1-(3-METHOXYPHENOXY)-2-PROPANOL, 1-(3-methoxyphenoxy)-2-propanol]
AVERAGE VALUE OF FLUORESCENT SIGNAL INTENSITY ([1]; Example 1, 9 g/L in first reagent, final 6.5 g/L, relative scale 0-255): 246.8
average value of the fluorescence intensity compared with when other compounds are used ([1]; Example 1): significantly larger

Oc1ccccc1-c1ccccc1 [ORTHOPHENYLPHENOL, orthophenylphenol]
AVERAGE VALUE OF FLUORESCENT SIGNAL INTENSITY ([1]; Example 1, 3 g/L in first reagent, final 2.2 g/L, relative scale 0-255): 250.1
average value of the fluorescence intensity compared with when other compounds are used ([1]; Example 1): significantly larger
